Experimental data published in patent US20120035221A1, “Method of Fungal Pathogen Control in Grass or Turf” (priority 2004, published 2012).

How the values were obtained:
powdery mildew = assay: Greenhouse trial, powdery mildew severity on Kentucky bluegrass (Example 4); type: in vivo, Erysiphe graminis; settings: for Powdery mildew rating: 1 = best (no disease) to 9 = dead
Curvularia [1] = assay: Curvularia on bermudagrass 'TifEagle', golf course field trial (Example 8); type: in vivo; settings: for % turf infected with disease (Curvularia): imidacloprid 0.4 lb/A single application, fungicide programs every two weeks
Procedure: Established bermudagrass (cv. ‘TifEagle’) on a golf course in Florida was treated in late spring with imidacloprid at 0.4 lb/A (i.e., 0.45 kg/Ha). For comparison, two different fungicide spray programs were applied to nearby plots. The two fungicide spray programs were (1) fosetyl+iprodione at (4 oz.+4 oz.) per 1000 ft^2 [(1.2 g+1.2 g) per m^2] alternated with fosetyl+trifloxystrobin at (4 oz.+0.15 oz.) per 1000 ft^2 [(1.2 g+46 mg) per m^2], and (2) fosetyl+iprodione at (4 oz.+4 oz.) per 1000 ft^2 [(1.2 g+1.2 g) per m^2] alternated with flutolanil at 2.2 oz product/1000 ft^2 (0.67 g) per m^2). The fungicide applications were made every two weeks. In comparison, the imidacloprid-treated plots received only a single application of active ingredient.
At the time of treatment, Curvularia disease was just beginning to develop (i.e., the mean percent infection in all plots was 3% of the turf cover). The spread of the disease was monitored weekly for twelve weeks, and turf quality, measured on a 0 to 9 scale (0=dead turf and 9=perfect quality). […] Effects of the various treatments on disease incidence are described in Table 6 (where A+a number represents days after application of imidacloprid). Data are expressed as % turf infected with disease.

Pythium aphandermatum = assay: Pythium infection of bentgrass 'Crenshaw' turf flats (Example 2); type: in vivo, P. aphanidermatum; settings: imidacloprid alone 481 g/Ha
Procedure: Bentgrass var. ‘Crenshaw’ was seeded in 10 in.×12 in. (ca. 25 cm×30 cm) peat flats containing steam sterilized 80/20 greens mix. Flats were watered daily with an overhead misting system. Plots were fertilized on 26 days later with 200 ml of a 288 ppm 20-20-20 Regal Green fertilizer solution. Treatments were applied with a CO2 backpack sprayer at 2.0 gal./1000 ft^2 (i.e., 81.5 liters/1000 m^2), with a single 8003E nozzle. lmidacloprid (481 g/Ha) was applied the same day and mancozeb fungicide was applied one week later. Two doses of each fungicide were tested. Plots were inoculated with Pythium aphandermatum 2 days after the fungicides were applied by placing two 1-in (2.5-cm) pieces of infested fescue leaves on each flat. Results are presented in Table 2 (where B+a number represents days after application of the herbicide component).

Rhizoctonia solani = assay: Brown Patch infection of bentgrass 'Crenshaw' turf flats (Example 6); type: in vivo; settings: for % Brown Patch infection: imidacloprid alone 481 g/Ha
Procedure: Bentgrass var. ‘Crenshaw’ was seeded in 10 in.×12 in. (25 cm×30 cm) peat flats containing steam sterilized 80/20 greens mix. Flats were watered daily with an overhead misting system. Plots were fertilized on 11/20 with 200 ml of a 288 ppm 20-20-20 Regal Green fertilizer solution. Treatments were applied with a CO2 backpack sprayer at 2.0 gal./1000 ft^2 (i.e., 81.5 liters/1000 m^2) and a single 8003E nozzle. Imidacloprid was applied on 16 days after seeding and fungicides applied 21 days after seeding and 35 days after seeding. Plots were inoculated 18 days after seeding with 0.25 g of fescue seed infected with Rhizoctonia solani. Results are presented in Table 4 (where B+a number represents days after application of the herbicide component).

Curvularia [2] = assay: Disease infection of turf flats treated with Merit 75 WP (Example 5); type: in vivo; settings: for percent infection (Curvularia): Kentucky bluegrass
Procedure: Four sets of twenty-four 10 in.×12 in. (25 cm×30 cm) flats were filled with sterilized sand and each set was seeded with either Kentucky bluegrass, Crenshaw L-93 bentgrass, bermudagrass, or K-31 tall fescue. Each flat was fertilized weekly with 20-20-20 soluble fertilizer at 0.144 g per 200 ml of water (equivalent to 4 lbs/year/acre). The trial was replicated once.
Twelve flats in each set were treated with Merit 75 WP equivalent to 8.6 oz/acre per 80 gal. (ca. […] per 100 liter) of water (spray application) for each turf variety and twelve flats remained untreated. Replicate 1 was treated 25 days after seeding and Replicate 2 was treated 28 days after seeding. Disease outbreaks began approximately the time of treatment. Assessments of the infection percentage were done at 13 and 25 days after treatment. […] The percent disease infection at the first and second assessments in the first trial was 22 and 26%, respectively, while the percent infection in the imidacloprid treated flats was 1 and 8% at the first and second assessment dates, respectively. In the second trial, disease pressure was lower, but the untreated flats had 3 and 8% infection at the first and second assessment dates, whereas the imidacloprid treated flats had 0.5 and 2% at the two assessment dates.

[3] = system: Sclerotinia homoeocarpa (Dollar Spot); assay: Dollar Spot infection of bentgrass 'Crenshaw' turf flats (Example 1); type: in vivo; settings: for % Dollar Spot: imidacloprid alone 481 g/Ha
Procedure: Bentgrass var. ‘Crenshaw’ was seeded in 10 in.×12 in. (25 cm×30 cm) peat flats containing steam sterilized 80/20 greens mix. Flats were watered daily with an overhead misting system. Plots were fertilized with 200 ml of a 288 ppm 20-20-20 Regal Green fertilizer solution 23 days later. lmidacloprid (481 g/Ha) was applied according to the Merit® insecticide label the same day that fertilizer was applied. Fungicide treatments were applied 7 days later with a CO2 backpack sprayer at 2.0 gal./1000 ft^2 (i.e., 81.5 liters/1000 m^2) with a single 8003E nozzle. Two doses of each fungicide were tested. Plots were inoculated with Sclerotinia homoeocarpa (Dollar Spot) 2 days after the fungicides were applied by placing two 1-in. (2.5-cm) pieces of infested fescue leaves on each flat. Results are presented in Table 1 (where B+a number represents days after application of the herbicide component).

Pythium aphanedermatum = assay: Pythium infection of bentgrass sod flats (Example 7); type: in vivo; settings: for % Pythium: imidacloprid alone 481 g/Ha
Procedure: Bentgrass sod var. ‘Crenshaw’ was cut and placed in 6″×7″ (15 cm×17.5 cm) peat flats containing steam-sterilized 80/20 greens mix during the spring. To create conditions favorable for the development of Pythium, the flats were watered daily with an overhead misting system to provide conditions favorable to the development on disease. In addition, plots were fertilized weekly with 100 ml of a 244 ppm 20-20-20 Regal Green fertilizer solution. Imidacloprid at 481 g/Ha was applied four days after being placed in the flats. Fungicides were applied ten days after application of imidacloprid with a CO2 backpack sprayer at 2.0 gal. /1000 ft^2 (i.e., 81.5 liters/1000 m^2) using a single 8003E nozzle. Plots were inoculated with 2 one-inch […] sections of Pythium aphanedermatum-infested fescue leaves three days after application of the fungicides, and the percent infection in the plots was measured for the next 20 days. Results are presented in Table 5 (where A+a number represents days after application of imidacloprid).

grass = assay: Grass pot trial, dry weight and visual vigor under powdery mildew (Example 3); type: in vivo; settings: 8 WAT, 1 to 5 scale, powdery mildew infestation, in words
Excerpt: Six-inch (15-cm) diameter pots were filled to the rim with ProMix® BX potting soil and leveled off. Grass seed (0.5 g) was distributed evenly over the whole mix surface. The seed was watered in very gently. The grass was fertilized once 17 days later with Peters 20-10-20 at 100 ppm. The first cut was done on 11 days later; the grass was allowed to re-grow and cut 26 days later. Cutting was done at 2 in. (5 cm) height, using a round plastic cylinder that fit over the pot. The cut was made with hedge sheers and finished with scissors. Treatments were applied one day later using a volume of 20 ml per pot, followed with 117 ml of water/pot. The grass clippings were harvested an.d dried for dry weight determination 2 weeks after treatment (“WAT”) and 4 WAT. The grass was rated visually for vigor 8 WAT, using a 1 to 5 scale, before harvesting at the soil line. Dry weight and vigor data were subjected to analysis of variance (Fisher's Protected LSD, P=0.05).
The grass had germinated well within 30 days. Powdery mildew was noticed on some plants at 43 days after seeding, and became widespread in the plot. The powdery mildew coating appeared to grow more densely on the untreated plants. […] The invasion of the powdery mildew prevented the assessment of imidacloprid in the absence of pest pressure but it was serendipitously discovered that imidacloprid could have an effect on disease resistance in turf.

O=[N+]([O-])NC1=NCCN1Cc1ccc(Cl)nc1 [imidacloprid]
Powdery mildew rating (powdery mildew; 2 Weeks after treatment, 0.25 lbs/A (0.28 kg/Ha)): 3.4 | Powdery mildew rating (powdery mildew; 2 Weeks after treatment, 0.4 lbs/A (0.45 kg/Ha)): 3.4 | Powdery mildew rating (powdery mildew; 2 Weeks after treatment, 1.0 lbs/A (1.12 kg/Ha)): 3.4 | disease severity rating (powdery mildew) (powdery mildew; 6 WAT evaluation, treatments of imidacloprid, untreated 4.2, 1 to 9 scale): 3.1 | Powdery mildew rating (powdery mildew; 6 Weeks after treatment, 0.25 lbs/A (0.28 kg/Ha)): 3.2 | Powdery mildew rating (powdery mildew; 6 Weeks after treatment, 0.4 lbs/A (0.45 kg/Ha)): 3.1 | Powdery mildew rating (powdery mildew; 6 Weeks after treatment, 1.0 lbs/A (1.12 kg/Ha)): 3.1 | % turf infected with disease (Curvularia) (Curvularia [1]; A + 1): 1% | % turf infected with disease (Curvularia) (Curvularia [1]; A + 8): 1% | % turf infected with disease (Curvularia) (Curvularia [1]; A + 15): 1% | % turf infected with disease (Curvularia) (Curvularia [1]; A + 22): 0% | % turf infected with disease (Curvularia) (Curvularia [1]; A + 29): 0% | % turf infected with disease (Curvularia) (Curvularia [1]; A + 37): 0% | % turf infected with disease (Curvularia) (Curvularia [1]; A + 43): 0% | % turf infected with disease (Curvularia) (Curvularia [1]; A + 51): 16% | % turf infected with disease (Curvularia) (Curvularia [1]; A + 58): 21% | % turf infected with disease (Curvularia) (Curvularia [1]; A + 66): 54% | % turf infected with disease (Curvularia) (Curvularia [1]; A + 72): 30% | % turf infected with disease (Curvularia) (Curvularia [1]; A + 79): 34% | % turf infected with disease (Curvularia) (Curvularia [1]; A + 86): 38% | % turf infected with disease (Curvularia) (Curvularia [1]; A + 94): 16% | development of Curvularia disease incidence compared with the other plots (Curvularia [1]; after 8 WAT to end of trial, in words): increased at a much slower rate than did the untreated control | % Pythium (Pythium aphandermatum; B + 6): 11.7% | % Pythium (Pythium aphandermatum; B + 8): 20.0% | % Pythium (Pythium aphandermatum; B + 14): 36.7% | % Brown Patch infection (Rhizoctonia solani; B + 6): 53.3% | % Brown Patch infection (Rhizoctonia solani; B + 8): 73.3% | % Brown Patch infection (Rhizoctonia solani; B + 10): 80.0% | effect of imidacloprid alone on the disease (Brown Patch) (Rhizoctonia solani; in words): no effect on the disease | percent infection (Curvularia) (Curvularia [2]; first trial, first assessment (13 days after treatment), untreated 22%): 1% | percent infection (Curvularia) (Curvularia [2]; first trial, second assessment (25 days after treatment), untreated 26%): 8% | percent infection (Curvularia) (Curvularia [2]; second trial, first assessment, untreated 3%): 0.5% | percent infection (Curvularia) (Curvularia [2]; second trial, second assessment, untreated 8%): 2% | control of the other diseases on the other turf varieties (Curvularia [2]; bentgrass, bermudagrass, tall fescue, either trial, in words): did not provide control of the other diseases | control of Curvularia on the Kentucky bluegrass (Curvularia [2]; both replicates, in words): good control of Curvularia | % Dollar Spot ([3]; B + 7): 16.7% | % Dollar Spot ([3]; B + 10): 28.3% | % Dollar Spot ([3]; B + 13): 35.0% | % Dollar Spot ([3]; B + 17): 38.3% | % Dollar Spot ([3]; B + 21): 41.7% | % Dollar Spot ([3]; B + 24): 48.3% | effect of imidacloprid alone on incidence of disease (Dollar Spot) ([3]; imidacloprid alone, in words): no affect on incidence of disease | % Pythium (Pythium aphanedermatum; A + 8): 17.5% | % Pythium (Pythium aphanedermatum; A + 11): 32.5% | % Pythium (Pythium aphanedermatum; A + 15): 40.0% | % Pythium (Pythium aphanedermatum; A + 18): 38.8% | % Pythium (Pythium aphanedermatum; A + 22): 25.0% | % Pythium (Pythium aphanedermatum; A + 28): 12.0% | Pythium in plots treated with imidacloprid alone versus untreated plots (Pythium aphanedermatum; from 11 days after treatment on, in words): much less Pythium than did the untreated plots | visual vigor ratings (grass): visual vigor ratings indicate a benefit from the imidacloprid treatments
